Among the data in patent US8906925B2, “Pyrido[4,3-B]indoles containing rigid moieties” (Medivation Technologies, Inc., priority 2008, dated 2014) are inhibition values, retold here.

Where two headings read alike, the source gives them in different places.

Assay [1] has as its target human recombinant serotonin (5-Hydroxytryptamine) 5-HT7 receptor (Homo sapiens, UniProt P34969). As to the kind of experiment: Serotonin 5-HT7 radioligand binding ([3H]LSD). Particulars: compound at 0.1 μM; read-out: Inhibition of ligand binding, Serotonin 5-HT7 (percent inhibition of specific binding). From the text:
Receptor proteins were filtered and washed, the filters were then counted to determine [^3H]LSD specifically bound.

The target of the next assay is histamine receptor H1 (Homo sapiens, UniProt P35367). Put plainly: Histamine H1 radioligand binding ([3H]Pyrilamine). The conditions noted are these: read-out: Histamine Binding (1 μM) H1, percent inhibition of specific binding, 1 μM. The procedure, abridged:
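Values are percent inhibition of specific [3H]pyrilamine (1.2 nM) binding with compounds at ≤1 μM (1% DMSO vehicle); 180 min incubation at 25 °C, pH 7.4 Tris buffer, on CHO-expressed human H1 receptor; 1 μM pyrilamine defined nonspecific binding, bound ligand counted after filtration.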

Assay [2] concerns the target T1, human recombinant serotonin (5-Hydroxytryptamine) 5-HT6 receptor (Homo sapiens, UniProt P50406).
T1 construct: expressed in transfected cells; host or cells: human HeLa cells
As to the kind of experiment: Serotonin 5-HT6 radioligand binding ([3H]LSD). Particulars: read-out: Inhibition of ligand binding, Serotonin 5-HT6 (percent inhibition of specific binding); for inhibition at 0.1 µM: compound at 0.1 μM. The procedure: Compounds of the invention were incubated with 1.5 nM [3H]Lysergic acid diethylamide (LSD) for 120 min. at 37° C. […] Receptor proteins were filtered and washed, the filters were then counted to determine [3H]LSD specifically bound. Compounds were screened at 1 μM or lower, using 1% DMSO as vehicle. Biochemical assay results are presented as the percent inhibition of specific binding in Table 10.

For assay [3], the target named is human dopamine D2L receptor (Homo sapiens, UniProt P14416). As to the kind of experiment: Dopamine D2L radioligand binding ([3H]Spiperone). Particulars: compound at 1 μM. The source says: Non-specific binding was estimated in the presence of […] Haloperidol. Receptor proteins were filtered and washed, the filters were then counted to determine [^3H]Spiperone specifically bound. […] Biochemical assay results are presented as the percent inhibition of specific binding in Table 9.

In assay [4] the target is T2, human recombinant serotonin (5-Hydroxytryptamine) 5-HT2C receptor (Homo sapiens, UniProt P28335).
T2 construct: expressed in transfected cells; host or cells: Chinese hamster ovary (CHO-K1) cells
T2 sequence (P28335 33-458): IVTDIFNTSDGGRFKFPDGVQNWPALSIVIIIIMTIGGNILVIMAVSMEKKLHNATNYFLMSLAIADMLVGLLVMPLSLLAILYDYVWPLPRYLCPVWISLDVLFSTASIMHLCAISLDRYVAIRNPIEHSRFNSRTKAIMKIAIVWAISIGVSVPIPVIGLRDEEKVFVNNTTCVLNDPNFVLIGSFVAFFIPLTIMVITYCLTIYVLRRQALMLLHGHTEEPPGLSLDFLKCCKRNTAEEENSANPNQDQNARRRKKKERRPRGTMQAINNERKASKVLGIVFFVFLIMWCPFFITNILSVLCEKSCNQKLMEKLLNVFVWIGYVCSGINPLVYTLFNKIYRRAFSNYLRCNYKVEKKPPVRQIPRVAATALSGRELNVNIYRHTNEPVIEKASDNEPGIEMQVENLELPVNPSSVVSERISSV
Put plainly: Serotonin 5-HT2C radioligand binding ([3H]Mesulergine). The conditions noted are these: read-out: Inhibition of ligand binding, Serotonin 5-HT2C (percent inhibition of specific binding); for inhibition at 0.1 µM: compound at 0.1 μM. The protocol: Compounds of the invention were incubated with 1 nM [^3H]Mesulergine for 60 min. at 25° C. Non-specific binding was estimated in the presence of 1 μM Mianserin. Receptor proteins were filtered and washed, the filters were then counted to determine [^3H]Mesulergine specifically bound. Compounds were screened at 1 μM or lower, using 1% DMSO as vehicle. Biochemical assay results are presented as the percent inhibition of specific binding in Table 10.

Assay [5] deals with T3, human recombinant serotonin (5-Hydroxytryptamine) 5-HT2A receptor (Homo sapiens, UniProt P28223).
T3 construct: expressed in transfected cells; host or cells: Chinese hamster ovary (CHO-K1) cells
As to the kind of experiment: Serotonin 5-HT2A radioligand binding ([3H]Ketanserin). Particulars: for inhibition at 0.1 µM: read-out: Inhibition of ligand binding, Serotonin 5-HT2A (percent inhibition of specific binding), compound at 0.1 μM. The procedure: Compounds of the invention were incubated with 0.5 nM [^3H]Ketanserin for 60 min. at 25° C. Non-specific binding was estimated in the presence of 1 μM Mianserin. Receptor proteins were filtered and washed, the filters were then counted to determine [^3H]Ketanserin specifically bound.

[6] abbreviates: percent inhibition of specific binding, read-out: Inhibition of ligand binding, Dopamine D2L.
Where [7] appears, read: […] [3H]Spiperone, read-out: Inhibition of ligand binding, Dopamine D2L (percent inhibition of specific binding).

T1 sequence (P50406 whole entry): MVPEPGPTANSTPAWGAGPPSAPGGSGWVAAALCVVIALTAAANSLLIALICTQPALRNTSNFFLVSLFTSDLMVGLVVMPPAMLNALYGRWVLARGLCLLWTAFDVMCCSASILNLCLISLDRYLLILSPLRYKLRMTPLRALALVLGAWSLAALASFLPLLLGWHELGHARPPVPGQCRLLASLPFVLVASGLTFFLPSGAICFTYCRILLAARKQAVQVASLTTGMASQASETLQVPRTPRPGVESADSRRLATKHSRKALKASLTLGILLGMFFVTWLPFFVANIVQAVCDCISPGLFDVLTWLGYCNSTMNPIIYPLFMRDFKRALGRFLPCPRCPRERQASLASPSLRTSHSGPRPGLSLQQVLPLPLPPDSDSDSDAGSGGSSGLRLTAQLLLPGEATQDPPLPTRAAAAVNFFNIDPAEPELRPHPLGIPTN
human recombinant serotonin (5-Hydroxytryptamine) 5-HT7 receptor, sequence (P34969 whole entry): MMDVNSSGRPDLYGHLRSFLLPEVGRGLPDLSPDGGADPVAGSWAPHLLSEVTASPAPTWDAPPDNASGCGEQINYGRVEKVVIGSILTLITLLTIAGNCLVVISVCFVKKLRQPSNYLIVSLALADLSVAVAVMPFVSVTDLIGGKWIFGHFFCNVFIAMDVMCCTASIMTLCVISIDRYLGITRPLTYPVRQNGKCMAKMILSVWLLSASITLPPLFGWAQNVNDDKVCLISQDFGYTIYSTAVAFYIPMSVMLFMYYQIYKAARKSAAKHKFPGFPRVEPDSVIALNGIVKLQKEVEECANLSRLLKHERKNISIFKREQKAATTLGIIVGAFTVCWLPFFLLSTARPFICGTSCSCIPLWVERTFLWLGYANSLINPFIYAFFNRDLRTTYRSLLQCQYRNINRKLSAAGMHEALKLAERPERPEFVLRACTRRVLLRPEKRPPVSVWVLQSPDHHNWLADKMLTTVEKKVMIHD
histamine receptor H1, sequence (P35367 whole entry): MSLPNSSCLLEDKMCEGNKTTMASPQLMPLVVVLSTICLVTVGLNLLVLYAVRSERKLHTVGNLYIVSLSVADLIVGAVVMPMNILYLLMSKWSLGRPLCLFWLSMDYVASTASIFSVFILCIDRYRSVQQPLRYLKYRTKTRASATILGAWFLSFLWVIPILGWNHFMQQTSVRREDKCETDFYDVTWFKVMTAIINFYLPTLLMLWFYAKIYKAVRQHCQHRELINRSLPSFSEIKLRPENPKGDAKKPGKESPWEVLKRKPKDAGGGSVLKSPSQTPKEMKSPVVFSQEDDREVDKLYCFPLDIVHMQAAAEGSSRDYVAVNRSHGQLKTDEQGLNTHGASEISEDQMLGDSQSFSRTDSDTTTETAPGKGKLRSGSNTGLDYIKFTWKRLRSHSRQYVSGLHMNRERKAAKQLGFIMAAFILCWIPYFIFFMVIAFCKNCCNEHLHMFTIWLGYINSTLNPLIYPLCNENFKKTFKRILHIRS
T3 sequence (P28223 whole entry): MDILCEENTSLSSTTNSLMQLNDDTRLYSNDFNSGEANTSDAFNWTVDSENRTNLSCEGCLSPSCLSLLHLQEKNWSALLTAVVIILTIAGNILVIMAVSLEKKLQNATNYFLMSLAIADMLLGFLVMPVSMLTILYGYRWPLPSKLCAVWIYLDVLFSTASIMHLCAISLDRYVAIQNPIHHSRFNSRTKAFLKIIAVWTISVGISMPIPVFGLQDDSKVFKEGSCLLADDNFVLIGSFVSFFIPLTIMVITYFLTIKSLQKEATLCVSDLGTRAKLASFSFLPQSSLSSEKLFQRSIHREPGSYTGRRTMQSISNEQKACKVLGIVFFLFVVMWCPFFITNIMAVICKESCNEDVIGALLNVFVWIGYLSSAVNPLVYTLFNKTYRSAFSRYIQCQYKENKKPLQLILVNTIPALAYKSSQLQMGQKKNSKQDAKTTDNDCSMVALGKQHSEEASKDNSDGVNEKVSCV
human dopamine D2L receptor, sequence (P14416 whole entry): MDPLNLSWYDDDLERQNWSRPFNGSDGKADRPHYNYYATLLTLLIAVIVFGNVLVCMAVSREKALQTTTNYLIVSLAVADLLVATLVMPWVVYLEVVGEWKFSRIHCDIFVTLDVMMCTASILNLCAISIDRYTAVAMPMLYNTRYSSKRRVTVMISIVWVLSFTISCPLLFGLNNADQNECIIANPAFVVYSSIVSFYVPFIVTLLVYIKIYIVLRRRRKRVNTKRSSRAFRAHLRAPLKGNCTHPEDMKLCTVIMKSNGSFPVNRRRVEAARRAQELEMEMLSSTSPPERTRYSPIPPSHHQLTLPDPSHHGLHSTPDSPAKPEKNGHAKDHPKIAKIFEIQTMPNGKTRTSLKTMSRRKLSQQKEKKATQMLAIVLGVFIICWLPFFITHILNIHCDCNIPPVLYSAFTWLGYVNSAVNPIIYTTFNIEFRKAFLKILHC

A word on the inhibition: it is the drop in the measured response relative to a control, in per cent. Turning to `C/C(=C\n1c2c(c3cc(C(C)(C)C)ccc31)CN(C)CC2)c1ccncc1` [Compound 271, (E)-8-tert-butyl-2-methyl-5-(2-(pyridin-4-yl)prop-1-enyl)-2,3,4,5-tetrahydro-1H-pyrido[4,3-b]indole], the inhibition at 0.1 µM in assay [1] came out at 10%; in assay [2] it was 90%; in assay [4] it was 19%; in assay [5], 41%. Further, the inhibition at 1 µM at histamine receptor H1 is -16%; in assay [3] (setting [6]), 63%.
For the compound `C/C(=C\n1c2c(c3cc(Cl)c(Cl)cc31)CN(C)CC2)c1ccc(F)cc1` [Compound 248, (E)-7,8-dichloro-5-(2-(4-fluorophenyl)prop-1-enyl)-2-methyl-2,3,4,5-tetrahydro-1H-pyrido[4,3-b]indole], the inhibition at 0.1 µM worked out at 57% in assay [1], 101% in assay [2], 92% in assay [4] and 108% in assay [5]. Also, the values for the inhibition at 1 µM (on histamine receptor H1; in assay [3] (setting [6])) were 90% and 95%, respectively.
Consider `Cc1ccc2c(c1)c1c(n2CC(C)(O)c2ccncn2)CCN(C)C1` (stereo not shown) [Compound 197, 1-(2,8-dimethyl-3,4-dihydro-1H-pyrido[4,3-b]indol-5(2H)-yl)-2-(pyrimidin-4-yl)propan-2-ol], for which the inhibition at 0.1 µM was determined as 10% in assay [1], 4% in assay [2], 16% in assay [4] and 17% in assay [5]. Besides, the results for the inhibition at 1 µM (on histamine receptor H1; in assay [3] (setting [6])) were 61% and 14%, respectively.
`CC(C)C(O)(Cn1c2c(c3cc(Cl)ccc31)CN(C)CC2)c1ccncc1` (stereo not shown) [Compound 193, 1-(8-chloro-2-methyl-3,4-dihydro-1H-pyrido[4,3-b]indol-5(2H)-yl)-3-methyl-2-(pyridin-4-yl)butan-2-ol]: the inhibition at 0.1 µM in assay [1] worked out at 40%; in assay [2], 3%; in assay [4] it was 44%; in assay [5], 69%. Besides, the values for the inhibition at 1 µM (on histamine receptor H1; in assay [3] (setting [6])) were -7% and 14%, respectively.
`CN1CCc2c(c3cccc(Cl)c3n2C[C@](C)(O)c2ccncc2)C1` [Compound No. 470, (R)-1-(6-chloro-2-methyl-3,4-dihydro-1H-pyrido[4,3-b]indol-5(2H)-yl)-2-(pyridin-4-yl)propan-2-ol]: the inhibition at 1 µM at histamine receptor H1 came to 17%; in assay [3] (setting [7]) it was 1%; in assay [5] (read-out: Inhibition of ligand binding, Serotonin 5-HT2A (percent inhibition of specific binding), compound at 1 μM), 89%.
Consider `CCc1ccc2c(c1)c1c(n2/C=C(\C)c2ccncc2)CCN(C)C1` [Compound 270, (E)-8-ethyl-2-methyl-5-(2-(pyridin-4-yl)prop-1-enyl)-2,3,4,5-tetrahydro-1H-pyrido[4,3-b]indole], for which the inhibition at 0.1 µM in assay [1] was 79%; in assay [2], 97%; in assay [4], 84%; in assay [5], 92%. Further, the inhibition at 1 µM on histamine receptor H1 was determined as 19%; in assay [3] (setting [6]) it was 88%.
As for `CN1CCc2c(c3cc(Cl)ccc3n2CC(C)(O)c2ccncn2)C1` (stereo not shown) [Compound 198, 1-(8-chloro-2-methyl-3,4-dihydro-1H-pyrido[4,3-b]indol-5(2H)-yl)-2-(pyrimidin-4-yl)propan-2-ol], the inhibition at 0.1 µM is 4% in assay [1], 11% in assay [2], -1% in assay [4] and 23% in assay [5]. For the same compound, the values for the inhibition at 1 µM (at histamine receptor H1; in assay [3] (setting [6])) were 64% and 5%, respectively.
On to `CC/C(=C/n1c2c(c3cc(C)ccc31)CN(C)CC2)c1ccncc1` [Compound 281, (Z)-2,8-dimethyl-5-(2-(pyridin-4-yl)but-1-enyl)-2,3,4,5-tetrahydro-1H-pyrido[4,3-b]indole], for which the inhibition at 0.1 µM stood at 93% in assay [1], 78% in assay [2], 96% in assay [4] and 103% in assay [5]. The values for the inhibition at 1 µM (at histamine receptor H1; in assay [3] (setting [6])) were 42% and 51%, respectively.
Consider `C/C(=C\n1c2c(c3cc(C)ccc31)CN(C)CC2)c1ccncn1` [Compound 279, (E)-2,8-dimethyl-5-(2-(pyrimidin-4-yl)prop-1-enyl)-2,3,4,5-tetrahydro-1H-pyrido[4,3-b]indole], for which the inhibition at 0.1 µM in assay [1] is 53%; in assay [2] it was 90%; in assay [4] it was 70%; in assay [5], 75%. Besides, the inhibition at 1 µM on histamine receptor H1 stood at 21%; in assay [3] (setting [6]), 69%.
With `COc1ccc([C@@](C)(O)Cn2c3c(c4cc(C)ccc42)CN(C)CC3)cc1` [Compound 192, 1-(2,8-dimethyl-3,4-dihydro-1H-pyrido[4,3-b]indol-5(2H)-yl)-2-(4-methoxyphenyl)propan-2-ol], the inhibition at 0.1 µM was determined as 78% in assay [1], 38% in assay [2], 81% in assay [4] and 91% in assay [5]. Further, the inhibition at 1 µM was 61% on histamine receptor H1 and 34% in assay [3] (setting [6]).
In the case of `C/C(=C\n1c2c(c3cc(C)ccc31)CN(C(C)C)CC2)c1ccncc1` [Compound 272, (E)-2-isopropyl-8-methyl-5-(2-(pyridin-4-yl)prop-1-enyl)-2,3,4,5-tetrahydro-1H-pyrido[4,3-b]indole], the inhibition at 0.1 µM in assay [1] was -1%; in assay [2] it was 98%; in assay [4] it was 40%; in assay [5] it was 62%. Further, the inhibition at 1 µM on histamine receptor H1 was found to be 48%; in assay [3] (setting [6]), 85%.
As to `C/C(=C\n1c2c(c3cc(C)ccc31)CN(C)CC2)c1ccccn1` [Compound 278, (E)-2,8-dimethyl-5-(2-(pyridin-2-yl)prop-1-enyl)-2,3,4,5-tetrahydro-1H-pyrido[4,3-b]indole], the inhibition at 0.1 µM amounted to 79% in assay [1], 69% in assay [2], 91% in assay [4] and 88% in assay [5]. Further, the inhibition at 1 µM stood at 24% at histamine receptor H1 and 51% in assay [3] (setting [6]).
`C/C(=C\n1c2c(c3ccc(Cl)cc31)CN(C)CC2)c1ccc(C)nc1` [Compound 253, (E)-7-chloro-2-methyl-5-(2-(6-methylpyridin-3-yl)prop-1-enyl)-2,3,4,5-tetrahydro-1H-pyrido[4,3-b]indole]: the inhibition at 0.1 µM in assay [1] came to 54%; in assay [2], 9%; in assay [4] it was 49%; in assay [5], 85%. Also, the inhibition at 1 µM on histamine receptor H1 turned out to be 20%; in assay [3] (setting [6]), 22%.
With `C/C(=C\n1c2c(c3cc(Cl)ccc31)CN(CCC(C)(C)O)CC2)c1ccncc1` [compound 404, (E)-4-(8-chloro-5-(2-(pyridin-4-yl)prop-1-enyl)-3,4-dihydro-1H-pyrido[4,3-b]indol-2(5H)-yl)-2-methylbutan-2-ol], the inhibition at 1 µM worked out at 37% on histamine receptor H1, 95% in assay [2] (compound at 1 μM), 92% in assay [3] (setting [7]) and 90% in assay [4] (compound at 1 μM).
